Counter-ions that a name gives are not always drawn.
Key:
KU-812 xenograft = conditions: relapse after 48 to 60 days; cited from earlier work
K562 cells = test: Growth factor-induced transient resistance (serum-free medium, basic supplements, insulin); type: cell-based, human; conditions: 1 μM STI-571, two days pre-incubation in SF medium with basic supplements
Experimental: (A) Growth curves of K562 cells in serum medium, and serum-free medium supplied with basic supplements containing 5 μg/ml insulin and 5 μg/ml transferrin (basic) with or without 75 ng/ml EGF, 25 μg/ml HDL or both (EH). […] Relative survival of imatinib treated cells was calculated by comparison to no drug treatment. Pre-incubation for two days renders resistance. […] Since sirtinol is insoluble in SF medium, HDL 25 μg/ml was added to help dissolve the drug. (D) Effects of basic supplements in serum medium. […] Viable cells were counted one and three days after the treatment. […] (F) Effects of insulin in resistance.
Whether serum-free medium supplied with select growth factors provides a better culture environment for developing CML chemoresistance was determined. Serum-free (SF) medium with insulin, transferring, epidermal growth factor (EGF) and high density lipoprotein (HDL) was used. SF medium with the basic supplements (5 μg/ml insulin and 5 μg/ml transferring) was sufficient to support growth of both K562 cells (FIG. 13A) and KCL-22 cells. […] Sirtinol is able to overcome CML resistance in SF culture.
Transient resistance conferred by insulin and transferrin supplement is of interest as insulin receptor is overexpressed in about 90% primary CML cells. The key insulin downstream target phosphatidylinositol-3 kinase (PI3K) is required for BCR-ABL mediated transformation and inhibition of PI3K-Akt-mTor pathway has been explored to overcome CML chemoresistance. SIRT1 is a key gene for regulating insulin secretion and directly regulates Akt downstream target FOXO proteins through deacetylation. Therefore, the effect of insulin itself for transient resistance to imatinib and the response of sirtinol treatment were examined.

SIRT1 = SIRT1 protein expression by Western blot; type: cell-based, human
Experimental: (§1) SIRT1 expression was analyzed by Western blot using 1:5000 diluted rabbit monoclonal SIRT1 antibody (Epitomics). Controls used were GAPDH or actin as loading controls with rabbit anti-GAPDH (Trevigen) or anti-actin (Sigma) at 1:5000 dilution. GAPDH [>ref|NT—009759.15|Hs12—9916:6497433-6502281 Homo sapiens chromosome 12 genomic contig, reference assembly] primers used are as follows: […]
RNA was extracted with Trizol (Invitrogen), synthesized the first strand DNA with Superscript III kit (Invitrogen), and analyzed gene expression using SYBR GreenER qPCR SuperMix kit (Invitrogen). For Western blots, rabbit monoclonal anti-human SIRT1 (Epitomics), rabbit anti-mouse SIRT1 (Upstate Biotech), mouse monoclonal anti-c-ABL (BD Pharmingen), mouse monoclonal anti-Ku70 (Neomarker), rabbit polyclonal anti-acetylated p53 (Cell Signaling) and rabbit polyclonal anti-acetylated FOXO1 (Santa Cruz Biotech) were used. To analyze Ku70 acetylation, Ku70 was pulled down from total cell lysate with anti-Ku70 and protein A-agarose beads (Upstate Biotech) followed by acetylation detection with rabbit anti-acetyl lysine antibody (Cell Signaling).

CML mice [1] = conditions: P210 BCR-ABL BALB/c model; cited from earlier work
KCL-22 cells [2] = test: Resistance assay: relapse of KCL-22 cells in prolonged liquid culture (CML acquired resistance model); type: cell-based, human; conditions: for relapse of KCL-22 cells on imatinib (STI-571) in combination with the inhibitor: prolonged culture
Source text: Cells were maintained in these cultures without changing medium.
Cells were maintained in these cultures without changing medium. Aliquots of cells were taken out at specified time points and cell numbers counted using a hematocytometer. Cell viability was accessed by trypan blue exclusion where necessary.

SIRT1 promoter = SIRT1 promoter assay (luciferase reporter); type: cell-based, human; conditions: KCL-22 and K562 cells
Experimental: FeOfection reagent (GENOVIS) was used to transfect 0.18 μg reporter and 0.02 μg pmaxGFP each well per the manufacturer's instruction. Six hours after transfection, cells were treated with imatinib and harvested after another 30 hs. Luciferase activity was measured using Dual-Luciferase Assay System (Promega), and normalized to GFP reading in each lysate.

KCL-22M cells = conditions: 1 μM inhibitor
Experimental: Cell cycle was analyzed by fixing cells with 70% ethanol at −20° C. overnight. After washing, cells were resuspended in phosphate-buffered saline containing 1 mg/ml RNase A, incubated for 30 min at 37° C., and then stained with propidine iodine (50 μg/ml) for 30 min at room temperature before flow cytometry analysis. Cell proliferation was analyzed using a XTT Cell Proliferation kit (Roche Applied Science), and apoptosis was analyzed with annexin V kit (BD Pharmingen) as per the manufacturer's instruction.

KCL-22 cells [3] = test: Analysis of reactive oxygen species (ROS) and DNA damage (γH2AX); type: cell-based, human; conditions: 24 h, in the presence or absence of imatinib
Experimental: ROS was analyzed using redox-sensitive fluorochrome 2′.7′-dichlorofluorescein diacetate (Sigma) as described previously (Koptyra et al. 2006). When coupled with the apoptosis analysis, cells were labeled with annexin V first and then 2′.7′-dichlorofluorescein diacetate.
Cells were pre-selected for four days in HAT medium to remove pre-existing HPRT mutations. The efficiency of HAT selection was confirmed by plating these cells on soft agar with 2.5 μg/ml 6-thioguanine, which produced zero colony. HAT-selected cells were then treated with 0.5 μM CPT for 1 hour, and then cultured for 10 days before used for soft agar clonogenic assay with 6-thioguanine selection. The rest of HAT-selected cells were cultured in medium without selection. The change of γH2AX was analyzed with γH2AX Assay Kit (Upstate Biotech).

[4] = tested on: SIRT1 and other sirtuin deacetylases; conditions: cited from earlier work
HIC1 = HIC1 expression / SIRT1 level after HDAC and DNMT inhibitors; type: cell-based, human; conditions: KCL-22 cells, alone or in combination
Source text: Total cellular RNA with Trizol (Invitrogen) using a standard protocol. First strand DNA was synthesized and HIC1 expression by quantitative real-time RT-PCR using a kit with SYBR Green label (Invitrogen) as per the manufacture's instruction on a BioRad machine OPTICON. The following are the HIC1 primers (spanning introns), 5′-[…]-3′(exon 1a) and 5′-[…]-3′ (Exon 2). [>ref|NT—010718.15|Hs17—10875:1561637-1565694 Homo sapiens chromosome 17 genomic contig, reference assembly]
as §1

[5] = Physiological indexes of normal BALB/c mice after 10 day treatment; type: in vivo; conditions: tenovin-6 alone or in combination with imatinib
AML CD34+ cells = test: Apoptosis of AML CD34+ cells; type: cell-based, human
CML CD34+ cells = test: Apoptosis and p53 acetylation in primary CML CD34+ cells; type: cell-based, human
Source text: FIG. 32 illustrates that SIRT1 inhibition enhances apoptosis of human CML progenitor cells. (A) Inhibition of SIRT1 protein expression in CML and cord blood (CB) CD34+ cells by lentivirus-mediated expression of SIRT1 shRNA. […] (C) SIRT1 inhibition in CML CD34+ cells results in increased P53 acetylation. […] (F) SIRT1 expression in CB and AML CD34+ cells.

CML mice [6] = test: Mouse bone marrow transduction/transplantation model of CML-like disease, drug treatment
Solubility = type: physicochemical
[7] = 1 μM TSA with all dosages of STI-571

## Cc1ccc(NC(=O)c2ccc(CN3CCN(C)CC3)cc2)cc1Nc1nccc(-c2cccnc2)n1 [STI-571, Imatinib mesylate]
KU-812 xenograft
  fraction of mice relapsing on STI-571: one third
K562 cells
  sensitivity of K562 cells to STI-571 in SF medium: as refractory as KCL-22 cells
SIRT1; KCL-22M cells
  SIRT1 expression: did not change SIRT1 expression
SIRT1; KCL-22 and K562 cells, imatinib 48 hours
  SIRT1 protein levels: decreased in a drug concentration-dependent manner
CML mice [1]
  mice with prolonged survival on STI-571: 80%
KCL-22 cells [2]; 1 μM STI-571
  sensitivity of KCL-22 cells to treatment: insensitive
SIRT1 promoter
  SIRT1 promoter activity: significantly inhibited SIRT1 promoter activity

## CC(/C=C/C(=O)NO)=C\[C@@H](C)C(=O)c1ccc(N(C)C)cc1 [TSA, trichostatin A]
KCL-22M cells
  growth of KCL-22M cells: no effect on cell growth
KCL-22 cells [3]
  γH2AX expression: elicited robust γH2AX induction
[4]
  sensitivity of SIRT1 to the inhibitor: insensitive
KCL-22 cells [2]; [7]
  cell killing in combination with STI-571: massive apoptosis and dramatic cell killing
  relapse on TSA plus STI-571: After ten days, cells on all dosages of STI-571 relapsed
KCL-22 cells [2]; TSA at 1 μM alone
  toxicity on KCL-22 cells, inhibitor alone: little toxicity
KCL-22 cells [2]
  relapse of KCL-22 cells on imatinib (STI-571) in combination with the inhibitor: fails to block relapse
HIC1
  reactivation of HIC1 expression / reduction of SIRT1 level: could not reactivate HIC1 expression or reduce SIRT1 level

## CN(C)CCCCC(=O)Nc1ccc(NC(=S)NC(=O)c2ccc(C(C)(C)C)cc2)cc1 [tenovin-6]
[5]
  toxicity: No noticeable toxicity
AML CD34+ cells
  apoptosis of AML CD34+ cells: induced apoptosis
CML CD34+ cells
  P53 acetylation in CML CD34+ cells: enhanced P53 acetylation
  apoptosis of primitive CML CD34+CD38- progenitors incl. quiescent fraction: increased apoptosis
CML mice [6]; 50 mg/kg/day, 10 days from day 10 after transplantation
  CML mouse survival: significantly extended CML mouse survival
CML mice [6]; tenovin-6 with imatinib
  CML mouse survival, combination: longest survivors
KCL-22 cells [2]
  lowest dose that blocked relapse on imatinib: 1 µM
  recurrence on nilotinib or dasatinib in combination with SIRT1 inhibitor: effectively blocked the recurrence
  relapse on […] Nilotinib in combination with SIRT1 inhibitor: blocked relapse
  relapse of KCL-22 cells on imatinib (STI-571) in combination with the inhibitor: blocks relapse
KCL-22 cells [2]; 1 μM tenovin-6
  relapse on 1 μM Dasatinib in combination with tenovin-6: delayed the relapse
KCL-22 cells [2]; 5 μM tenovin-6
  relapse on 1 μM Dasatinib in combination with tenovin-6: blocked relapse
Solubility
  water solubility: water soluble

From US9176114B2, “Cell culture model for acquired chemoresistance of chronic myelogenous leukemia and related methods for identifying agents to overcome resistance” (CITY OF HOPE, priority 2007, dated 2015)
